Laboratory results from patent publication US6858714B2, “Cyclic GMP phosphodiesterase” (Incyte Corporation, priority 1997, dated 2005).
pIC50: −log10 of the molar value.

Legend:
PDE9A [1] = target: T1, PDE9A (Homo sapiens, UniProt O76083); assay: Effect of known PDE inhibitors on PDE9A activity (hydrolysis of 3H-cGMP); assay type: biochemical; details: cGMP as substrate, FIG. 5; for inhibition of PDE9A activity: up to 100 μM of inhibitor
T1 construct: A 1.8 kb region of PDE9A encoding the full length protein (nucleotides 61-1842) was amplified and cloned; made in house; host or cells: Sf9 insect cells (baculovirus, pFASTBAC)
Protocol: A 1.8 kb region of PDE9A encoding the full length of the protein was cloned into the baculovirus transfer vector pFASTBAC, expressed in sf9 cells, and a cell lysate prepared from these cells for enzyme assays. […] PDE9A was not inhibited by up to 100 μM of rolipram (inhibitor of PDE4), dipyridamole (inhibitor of PDE2, 4, 5, and 6), SKF94120 (inhibitor of PDE3), vinpocetine (inhibitor of PDE1), or IBMX (non-specific PDE inhibitor). […] Of particular note is the expression of PDE9A in Crohn's disease.
PDE9A to be used for assay was prepared from transfected Sf9 cells. Cells were harvested by centrifugation, resuspended in homogenization buffer (20 mM Tris-HCl, 2 mM benzamidine, 1 mM EDTA, 0.25 M sucrose, 100 uM PMSF, pH 7.5 ) at 1×10^7 cells/ml, and disrupted using a Branson sonicating probe (3×10 second pulses). Cellular debris was removed by centrifugation at 14,000×g for 10 minutes. The supernatant was stored at −70° C.
PDE activity was assayed by measuring the conversion of ^3H-cGMP to ^3H-guanosine in the presence of PDE9A and 5′ nucleotidase. A one-step assay was run using a 100 uL assay containing 50 mM Tris-HCl pH 7.5, 10 mM MgCl^2, 0.1 unit 5′ nucleotidase (from Crotalus atrox venom), and 0.0064-2.0 uM ^3H-cGMP. The reaction was started by the addition of 25 μl of diluted enzyme supernatant. Reactions were run directly in mini Poly-Q scintillation vials (Beckman Instruments Inc., Fullerton Calif.). Assays were incubated at 37° C. for a time period that would yield less than 15% cGMP hydrolysis in order to avoid non-linearity associated with product inhibition. The reaction was stopped by the addition of 1 ml of Dowex AG1x8 (Cl form) resin (1:3 slurry). Three ml of scintillation fluid were added, and the vials were mixed. The resin in the vials was allowed to settle for 1 hr before counting. Soluble radioactivity associated with ^3H-guanosine was quantitated using a Beta scintillation counter. The amount of radioactivity recovered is proportional to the activity of PDE9A in the reaction.

PDE9A [2] = target: T1, PDE9A; assay: Kinetics of enzyme activity of recombinant PDE9A (Lineweaver-Burke analysis); assay type: biochemical; details: FIG. 3, read-out: Km of PDE9A for cGMP as substrate

T1 sequence (O76083 whole entry): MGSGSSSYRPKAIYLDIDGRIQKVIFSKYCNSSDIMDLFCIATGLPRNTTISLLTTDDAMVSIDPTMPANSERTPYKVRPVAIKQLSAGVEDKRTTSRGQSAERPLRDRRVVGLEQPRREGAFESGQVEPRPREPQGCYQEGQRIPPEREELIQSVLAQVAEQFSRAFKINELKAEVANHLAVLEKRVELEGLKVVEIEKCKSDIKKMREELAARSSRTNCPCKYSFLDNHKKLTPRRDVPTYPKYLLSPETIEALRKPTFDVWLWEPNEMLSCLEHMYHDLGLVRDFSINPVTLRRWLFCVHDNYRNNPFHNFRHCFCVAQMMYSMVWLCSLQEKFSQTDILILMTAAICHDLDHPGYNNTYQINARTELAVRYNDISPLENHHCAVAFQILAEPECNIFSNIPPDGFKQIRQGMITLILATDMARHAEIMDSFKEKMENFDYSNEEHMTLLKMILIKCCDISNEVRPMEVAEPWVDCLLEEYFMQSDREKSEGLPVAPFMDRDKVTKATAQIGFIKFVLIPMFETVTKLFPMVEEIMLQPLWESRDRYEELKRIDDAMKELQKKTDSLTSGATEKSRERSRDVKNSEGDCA

| SMILES | inhibition of PDE9A activity (PDE9A [1]) | further results |
| --- | --- | --- |
| CCCOc1ccccc1-c1nc2nn[nH]c2c(=O)[nH]1 [zaprinast] |  | pIC50 (PDE9A [1]; recombinant PDE9A from Sf9 cell lysate, read-out: IC50 for inhibition of PDE9A): 4.46 |
| Nc1nc2c(ncn2[C@@H]2O[C@@H]3COP(=O)(O)O[C@H]3[C@H]2O)c(=O)[nH]1 [cGMP] |  | Km (PDE9A [2]): 0.17 µM |
| CCOC(=O)C1=C[C@]2(CC)CCCN3CCc4c(n1c1ccccc41)[C@@H]32 [vinpocetine] | not inhibited |  |
| OCCN(CCO)c1nc(N2CCCCC2)c2nc(N(CCO)CCO)nc(N3CCCCC3)c2n1 [dipyridamole] | not inhibited |  |

The next lines start with results.

| inhibition of PDE9A activity (PDE9A [1]) | SMILES | further results |
| --- | --- | --- |
| not inhibited | CC(C)Cn1c(=O)n(C)c(=O)c2[nH]cnc21 [IBMX] |  |
| not inhibited | COc1ccc(C2CNC(=O)C2)cc1OC1CCCC1 (stereo not shown) [rolipram] |  |
| not inhibited | CC(=O)Nc1ccc(-c2c[nH]c(=O)cn2)cc1 [SKF94120] |  |
